Assays:
anti-ANEC-BSA serum = assay: Inhibition ELISA, anti-ANEC-BSA serum on ANEC-BSA coated wells; type: binding, rabbit; settings: anti ANEC-BSA sera
[1] = Solubility in aqueous buffer; type: physicochemical; settings: insoluble above this concentration, read-out: solubility limit in aqueous buffer

In the case of CCn1c2ccccc2c2cc(N)ccc21 [3-amino-N-ethyl-carbazole, 3-amino-N-ethylcarbazole], the IC50 (anti-ANEC-BSA serum; free hapten as inhibitor, read-out: concentration giving 50% inhibition of antibody binding) is reported as 10 µM, the “inhibition of antibody binding” value (anti-ANEC-BSA serum; free hapten at 1 mM) is reported as 70% and the solubility [1] is reported as ≤ 1000 µM.

— patent US4835258A, “Conjugation of aromatic amines or nitro-containing compounds with proteins or polypeptides by photoirradiation of the azide derivatives with ultraviolet light in order to produce antibodies against the haptens” (Northwestsern University, priority 1986, dated 1989)
